{"source": "patent EP2181708A1", "about": "“Use of Valproate for reducing CHOP levels, particularly in a mammal having SCI” (Universitat Autonoma de Barcelona, priority 2008, dated 2010)", "type_in_all_cases": "in vivo, Sprague-Dawley rats", "key": {"[1]": {"system": "P-eIF2α", "assay": "Western blot of phospho-eIF2α in spinal cord after contusion SCI", "settings": "whether higher in VPA-treated injured spinal cords than in vehicle-treated ones", "method": "(§1) Adult females Sprague-Dawley rats aged 11 weeks (220-250 g) were anesthetized with pentobarbital (40 mg/kg i.p.). When unresponsive, the vertebral column was exposed and a laminectomy carried out at T8-T9 levels. Rostral T7 and caudal T10 vertebral bodies were clamped with Adson stabilizing forceps, and carefully adjusted to level the spinal cord in the horizontal plane. A contusion injury was performed using the Infinite Horizon impactor device (Precision Scientific Instruments, Lexington, KY). The stainless steel impounder tip was placed at 3-4 mm above the exposed spinal cord, and then a fast impact produced applying forces of 150 or 250 kilodynes (KDyn) to the exposed spinal cord. The wound was sutured with 5-0 silk thread in the muscular plane and the skin was closed with small clips and disinfected with povidone iodine solution. Sham-operated animals received the same surgical procedure but sustained no impact injury; the spinal cord was left exposed for 5 min. […]\n(§2) Rats were re-anesthetised and decapitated at 3 dpo for sample preparation. […] After clearance, protein concentration was measured by the BCA method assay (BCA Protein Assay kit, Pierce). […] The membrane was visualized by enhanced chemiluminiscence (ECL) method and the images analyzed with Gene Snap and Gene Tools software, and Gene Genome apparatus (Syngene). […]"}, "[2]": {"system": "spinal cord", "assay": "Histological analysis of lesion volume, tissue sparing and myelin after SCI", "method": "(§3) Adult females Sprague-Dawley rats aged 11 weeks (220-250 g) were anesthetized with pentobarbital (40 mg/kg i.p.). When unresponsive, the vertebral column was exposed and a laminectomy carried out at T8-T9 levels. Rostral T7 and caudal T10 vertebral bodies were clamped with Adson stabilizing forceps, and carefully adjusted to level the spinal cord in the horizontal plane. A contusion injury was performed using the Infinite Horizon impactor device (Precision Scientific Instruments, Lexington, KY). The stainless steel impounder tip was placed at 3-4 mm above the exposed spinal cord, and then a fast impact produced applying forces of 150 or 250 kilodynes (KDyn) to the exposed spinal cord. The wound was sutured with 5-0 silk thread in the muscular plane and the skin was closed with small clips and disinfected with povidone iodine solution. Sham-operated animals received the same surgical procedure but sustained no impact injury; the spinal cord was left exposed for 5 min. The animals were maintained in a warm environment until full recovery, and received preventive antibiotic (amoxicyline) and analgesic (buprenorphine) treatment. All animals were kept under standard conditions of light and temperature and fed with food and water ad libitum. The procedures involving animals were approved by the Ethics Committee of our institution, and followed the European Communities Council Directive 86/609/EEC.\nVPA was intraperitoneally administered at an initial dose of 150 mg/kg by 3 h after surgery, and then a dose of 300 mg/Kg either every 24 h or every 12 h during the first week post-surgery, following by a dose of 300 mg/Kg every 24 h for the next two weeks. Groups of rats subjected to SCI or sham operation received VPA or saline injections following the same regime. Experiments were approved by the Ethics Committee at the Universitat Autònoma de Barcelona, and followed the European Communities Council Directive 86/609/EEC\nAt 3 or 35 days post-surgery, rats were perfused transcardially with 4% paraformaldehyde in 0.1M phosphate buffer saline (PBS, pH 7.4). […]"}, "[3]": {"system": "BiP/Grp78", "assay": "Western blot of BiP/Grp78 in spinal cord after contusion SCI", "method": "as §1, with “min. The animals were maintained in a warm environment until full recovery, and received preventive antibiotic (amoxicyline) and analgesic (buprenorphine) treatment.” for “min.”\n(§4) Rats were re-anesthetised and decapitated at 3 dpo for sample preparation. […] After clearance, protein concentration was measured by the BCA method assay (BCA Protein Assay kit, Pierce). […]"}, "[4]": {"system": "acetylated histone-3 (acetyl-H3)", "assay": "Western blot of acetylated histone-3 in spinal cord after contusion SCI", "settings": "250 Kdyn contusion, VPA every 12 h, vs SCI without VPA", "method": "as §1, with “min. The animals were maintained in a warm environment until full recovery, and received preventive antibiotic (amoxicyline) and analgesic (buprenorphine) treatment.” for “min.”\nas §4"}, "[5]": {"system": "hind limb locomotion", "assay": "Open-field walking test (BBB scale) after spinal cord contusion", "settings": "SCI 250 Kdyn", "method": "as §3, with “The procedures involving animals were approved by the Ethics Committee of our institution, and followed the European Communities Council Directive 86/609/EEC.” left out"}, "[6]": {"system": "ATF4", "assay": "Western blot of ATF4 in spinal cord after contusion SCI", "settings": "VPA-treated injured spinal cords compared with vehicle-treated ones", "method": "as §1, §2"}, "[7]": {"settings": "epicenter and adjacent section of the spinal cord, 35 days"}}}
{"smiles": "CCCC(CCC)C(=O)O", "note": "[VPA, 2-propylpentanoic acid]", "values": [{"measurement": "levels of P-eIF2α", "setting": "[1]", "value": "not"}, {"measurement": "extent of myelin loss", "setting": "[2]; 2 mm from the epicenter, cresyl violet and luxol fast blue, 35 dpo", "value": "markedly reduced"}, {"measurement": "area of total tissue preserved", "setting": "[2]; [7]", "value": "significantly increased"}, {"measurement": "area of white matter preserved", "setting": "[2]; [7]", "value": "significantly increased"}, {"measurement": "BiP levels", "setting": "[3]; VPA 300 mg/kg every 12 h i.p., contusion 150 and 250 KDyn, three days post-injury", "value": "not able to alter"}, {"measurement": "BiP levels", "setting": "[3]; VPA 300mg/kg once per day i.p., vs saline, 3 days post-injury", "value": "did not produce changes"}, {"measurement": "levels of acetylated H3", "setting": "[4]", "value": "further increased"}, {"measurement": "BBB score", "setting": "[5]; 7 days post-surgery, average of both groups", "value": "3-4"}, {"measurement": "BBB score", "setting": "[5]; 35 days, VPA 300 mg/kg every 12 h one week then every 24 h two weeks, saline 8", "value": 12}, {"measurement": "levels of ATF4", "setting": "[6]", "value": "significantly higher levels"}]}
